According to patent US20240398805A1, “QUINAZOLINE DERIVED COMPOUNDS AS EGFR INHIBITORS AND THEIR USES THEREOF” (ACCUTAR BIOTECHNOLOGY INC., priority 2021, published 2024):

What was measured:
Type in all cases: cell-based
[1] = test system: HCC827-ASV cells (human EGFR exon 20 insertion mutant A769_D770insASV); experiment: Cell growth inhibition (CellTiter-Glo, 3 days) in HCC827-ASV; settings: 72 h, 3 days after administration
Summary of the method: (§1)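 HCC827 cells lentivirally transduced with codon-optimized ASV or YVMA insertion mutants were seeded at 5000 cells/well in RPMI with 10% FBS and incubated overnight. Compound was added at various concentrations from a 10× stock in medium, with 3 days' incubation. Viability read by CellTiter-Glo luminescence.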

[2] = test system: HCC827-SVD cells (human EGFR exon 20 insertion mutant D770_N771 insSVD); experiment: Cell growth inhibition (CellTiter-Glo, 3 days) in HCC827-SVD; settings: 72 h, 3 days after administration
Summary of the method: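 HCC827 cells carrying lentiviral codon-optimized EGFR D770_N771 insSVD, with endogenous EGFR knocked out by CRISPR (single clone), seeded at 5000 cells/well in RPMI with 10% FBS. Viability read by CellTiter-Glo luminescence.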

[3] = test system: HCC827-YVMA cells (human ERBB2 exon20 insertion mutant A775_G776ins YVMA); experiment: Cell growth inhibition (CellTiter-Glo, 3 days) in HCC827-YVMA; settings: 72 h, 3 days after administration
Summary of the method: as §1

[4] = test system: HCC827 cells; experiment: Cell growth inhibition (CellTiter-Glo, 3 days) in HCC827; settings: Homo sapiens, 72 h, 3 days after administration
Summary of the method: (§2)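 HCC827 cells in RPMI/10% FBS and A431 cells in DMEM/10% FBS were seeded at 5000 cells/well and left overnight. Compound was then added over a concentration range for 3 days of incubation, and viability was read by CellTiter-Glo luminescence.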

[5] = test system: A431 cells; experiment: Cell growth inhibition (CellTiter-Glo, 3 days) in A431; settings: Homo sapiens, A-431, 72 h, 3 days after administration
Summary of the method: as §2

SMILES	GI50 [1] [nM]	GI50 [2] [nM]	GI50 [3] [nM]	GI50 [4] [nM]	GI50 [5] [nM]
C=CC(=O)N1CCC(Nc2cc3c(Nc4ccc(Oc5ccnc(N6CCN(C)CC6)c5)cc4F)ncnc3cc2OC)CC1 [Example 113, 1-(4-((4-((2-fluoro-4-((2-(4-methylpiperazin-1-yl)pyridin-4-yl)oxy)phenyl)amino)-7-methoxyquinazolin-6-yl)amino)piperidin-1-yl)prop-2-en-1-one]	< 30	< 30	< 30	30 to 60	600 to 1000
C=CC(=O)N1CCC(Nc2cc3c(Nc4ccc(Oc5ccnc(N(C)CCOC)c5)cc4F)ncnc3cc2OC)CC1 [Example 116, 1-(4-((4-((2-fluoro-4-((2-((2-methoxyethyl)(methyl)amino)pyridin-4-yl)oxy)phenyl)amino)-7-methoxyquinazolin-6-yl)amino)piperidin-1-yl)prop-2-en-1-one]	100 to 300	100 to 300	60 to 100	300 to 600	600 to 1000
C=CC(=O)N1CCC(Nc2cc3c(Nc4ccc(Oc5ccnc(N6CC7(COC7)C6)c5)cc4F)ncnc3cc2OC)CC1 [Example 118, 1-(4-((4-((4-((2-(2-oxa-6-azaspiro[3.3]heptan-6-yl)pyridin-4-yl)oxy)-2-fluorophenyl)amino)-7-methoxyquinazolin-6-yl)amino)piperidin-1-yl)prop-2-en-1-one]	30 to 60	30 to 60	30 to 60	300 to 600	≥ 1000
C=CC(=O)N1CCC(Nc2cc3c(Nc4ccc(Oc5ccnc(N6CC(OC)C6)c5)cc4F)ncnc3cc2OC)CC1 [Example 119, 1-(4-((4-((2-fluoro-4-((2-(3-methoxyazetidin-1-yl)pyridin-4-yl)oxy)phenyl)amino)-7-methoxyquinazolin-6-yl)amino)piperidin-1-yl)prop-2-en-1-one]	60 to 100	100 to 300	100 to 300	300 to 600	100 to 300
C=CC(=O)N1CCC(Nc2cc3c(Nc4ccc(Oc5ccnc(N6CCC(O)CC6)c5)cc4F)ncnc3cc2OC)CC1 [Example 121, 1-(4-((4-((2-fluoro-4-((2-(4-hydroxypiperidin-1-yl)pyridin-4-yl)oxy)phenyl)amino)-7-methoxyquinazolin-6-yl)amino)piperidin-1-yl)prop-2-en-1-one]	< 30	< 30	< 30	300 to 600	≥ 1000
C=CC(=O)N1CCC(Nc2cc3c(Nc4ccc(Oc5ccnc(N6CCNCC6)c5)cc4F)ncnc3cc2OC)CC1 [Example 123, 1-(4-((4-((2-fluoro-4-((2-(piperazin-1-yl)pyridin-4-yl)oxy)phenyl)amino)-7-methoxyquinazolin-6-yl)amino)piperidin-1-yl)prop-2-en-1-one]	300 to 600	300 to 600	600 to 1000	≥ 1000	≥ 1000
C=CC(=O)N1CCC(Nc2cc3c(Nc4ccc(Oc5ccnc(N6CCO[C@@H](CO)C6)c5)cc4F)ncnc3cc2OC)CC1 [Example 124, (R)-1-(4-((4-((2-fluoro-4-((2-(2-(hydroxymethyl)morpholino)pyridin-4-yl)oxy)phenyl)amino)-7-methoxyquinazolin-6-yl)amino)piperidin-1-yl)prop-2-en-1-one]	30 to 60	30 to 60	60 to 100	600 to 1000	≥ 1000
C=CC(=O)N1CCC(Nc2cc3c(Nc4ccc(Oc5ccnc(N6CCO[C@H](CO)C6)c5)cc4F)ncnc3cc2OC)CC1 [Example 125, (S)-1-(4-((4-((2-fluoro-4-((2-(2-(hydroxymethyl)morpholino)pyridin-4-yl)oxy)phenyl)amino)-7-methoxyquinazolin-6-yl)amino)piperidin-1-yl)prop-2-en-1-one]	100 to 300	300 to 600	100 to 300	≥ 1000	≥ 1000
C=CC(=O)N1CCC(Nc2cc3c(Nc4ccc(Oc5ccnc(N6CCOC[C@H]6CO)c5)cc4F)ncnc3cc2OC)CC1 [Example 126, (R)-1-(4-((4-((2-fluoro-4-((2-(3-(hydroxymethyl)morpholino)pyridin-4-yl)oxy)phenyl)amino)-7-methoxyquinazolin-6-yl)amino)piperidin-1-yl)prop-2-en-1-one]	60 to 100	100 to 300	100 to 300	≥ 1000	≥ 1000
C=CC(=O)N1CCC(Nc2cc3c(Nc4ccc(Oc5ccnc(N6CCOC[C@@H]6CO)c5)cc4F)ncnc3cc2OC)CC1 [Example 127, (S)-1-(4-((4-((2-fluoro-4-((2-(3-(hydroxymethyl)morpholino)pyridin-4-yl)oxy)phenyl)amino)-7-methoxyquinazolin-6-yl)amino)piperidin-1-yl)prop-2-en-1-one]	100 to 300	100 to 300	100 to 300	600 to 1000	≥ 1000

The next lines start with the values.

GI50 [1] [nM]	GI50 [2] [nM]	GI50 [3] [nM]	GI50 [4] [nM]	GI50 [5] [nM]	SMILES
60 to 100	100 to 300	100 to 300	300 to 600	≥ 1000	C=CC(=O)N1CCC(Nc2cc3c(Nc4ccc(Oc5ccnc(N6CC[C@@H](OC)C6)c5)cc4F)ncnc3cc2OC)CC1 [Example 114, (R)-1-(4-((4-((2-fluoro-4-((2-(3-methoxypyrrolidin-1-yl)pyridin-4-yl)oxy)phenyl)amino)-7-methoxyquinazolin-6-yl)amino)piperidin-1-yl)prop-2-en-1-one]
100 to 300	60 to 100	100 to 300	300 to 600	300 to 600	C=CC(=O)N1CCC(Nc2cc3c(Nc4ccc(Oc5ccnc(N6CC[C@H](OC)C6)c5)cc4F)ncnc3cc2OC)CC1 [Example 115, (S)-1-(4-((4-((2-fluoro-4-((2-(3-methoxypyrrolidin-1-yl)pyridin-4-yl)oxy)phenyl)amino)-7-methoxyquinazolin-6-yl)amino)piperidin-1-yl)prop-2-en-1-one]
100 to 300	100 to 300	60 to 100	300 to 600	≥ 1000	C=CC(=O)N1CCC(Nc2cc3c(Nc4ccc(Oc5ccnc(N(CCOC)CCOC)c5)cc4F)ncnc3cc2OC)CC1 [Example 117, 1-(4-((4-((4-((2-(bis(2-methoxyethyl)amino)pyridin-4-yl)oxy)-2-fluorophenyl)amino)-7-methoxyquinazolin-6-yl)amino)piperidin-1-yl)prop-2-en-1-one]
100 to 300	100 to 300	600 to 1000	≥ 1000	≥ 1000	C=CC(=O)N1CCC(Nc2cc3c(Nc4ccc(Oc5ccnc(N6CCN(C(C)=O)CC6)c5)cc4F)ncnc3cc2OC)CC1 [Example 120, 1-(4-((4-((4-((2-(4-acetylpiperazin-1-yl)pyridin-4-yl)oxy)-2-fluorophenyl)amino)-7-methoxyquinazolin-6-yl)amino)piperidin-1-yl)prop-2-en-1-one]
600 to 1000	600 to 1000	≥ 1000	600 to 1000	≥ 1000	C=CC(=O)N1CCC(Nc2cc3c(Nc4ccc(Oc5ccnc(N6CCC(N(C)C)CC6)c5)cc4F)ncnc3cc2OC)CC1 [Example 122, 1-(4-((4-((4-((2-(4-(dimethylamino)piperidin-1-yl)pyridin-4-yl)oxy)-2-fluorophenyl)amino)-7-methoxyquinazolin-6-yl)amino)piperidin-1-yl)prop-2-en-1-one]
